Peptide text beside a SMILES is read from it.
assay: Inhibition of human SGLT1 expressed in xenopus laevis oocyte assessed as inhibition of methyl-alpha-D-[14C]glucopyranoside uptake after 1 hrs

IC50	Compound
160 pM	NC(=O)CC[C@H](N)C(=O)N[C@@H](CO)C(=O)N1CCC[C@H]1C(=O)O [(S)-1-((S)-2-((S)-2,5-diamino-5-oxopentanamido)-3-hydroxypropanoyl)pyrrolidine-2-carboxylic acid] (H-Gln-Ser-Pro-OH)
2100 pM	NC(=O)CC[C@H](N)C(=O)N[C@@H](CS)C(=O)N1CCC[C@H]1C(=O)O [QCP] (H-Gln-Cys-Pro-OH)
170 pM	CC(=O)N1CCC[C@H]1C(=O)N[C@@H](CO)C(=O)N[C@@H](CCC(N)=O)C(=O)O [QSPac] (Ac-Pro-Ser-Gln-OH)
